Like-named read-outs stand apart in the source and are kept apart here.
What was measured:
[1] = target: T1, hA2A receptors expressed in CHO cells (Homo sapiens, UniProt P29274); assay: [3H]CGS21680 binding hA2A CHO cells; conditions: [3H]-CGS 21680, hA2A CHO cell membranes, 180 min at 25° C.; mean ± s.e. mean
T1 construct: expressed in transfected cells; host or cells: CHO cells (stably transfected, per Klotz et al. 1998); membrane preparation
Description: (§2) The cells are grown adherently and maintained in Dulbecco's Modified Eagles Medium with nutrient mixture F12 (DMEM/F12) without nucleosides, containing 10% fetal calf serum, penicillin (100 U/mL), streptomycin (100 μg/mL), L-glutamine (2 mM) and Geneticin (G418, 0.2 mg/mL) at 37° C. in 5% CO2/95% air. […] For membrane preparation the culture medium is removed and the cells are washed with PBS and scraped off T75 flasks in ice-cold hypotonic buffer (5 mM Tris HCl, 2 mM EDTA, pH 7.4). The cell suspension is homogenized and centrifuged for 30 min at 100,000×g. The membrane pellet is re-suspended in 50 mM Tris HCl buffer pH 7.4 and incubated with 2 UI/mL of adenosine deaminase for 30 min at 37° C.
(§3) Binding of 1 nM [^3H]—CHA to hA1CHO cells (50 μg of protein/assay) is performed using 50 mM Tris HCl buffer pH 7.4 and at least 6-8 different concentrations of agonists studied for an incubation time of 150 min at 25° C. […] Non-specific binding is determined in the presence of 10 μM of CHA and is about 20% of the total binding. […] Filter bound radioactivity is measured by scintillation spectrometry after addition of 5 mL of Aquassure.
(§4) All experimental data are expressed as the mean±standard error of the mean (s.e. mean) of three or four independent experiments performed in duplicate.

[2] = target: T2, hA2B receptors expressed in CHO cells (Homo sapiens, UniProt P29275); assay: cAMP assay hA2B CHO cells; type: cell-based; conditions: for Selectivity hA1/hA2B: ratio hA1 Ki / hA2B EC50; for Selectivity hA2A/hA2B: ratio hA2A Ki / hA2B EC50; for Selectivity hA3/hA2B: ratio hA3 IC50 / hA2B EC50; for EC50: stimulation of cAMP levels, hA2B CHO cells, mean ± s.e. mean
T2 construct: expressed in transfected cells; host or cells: CHO cells
T2 sequence (P29275 1-332): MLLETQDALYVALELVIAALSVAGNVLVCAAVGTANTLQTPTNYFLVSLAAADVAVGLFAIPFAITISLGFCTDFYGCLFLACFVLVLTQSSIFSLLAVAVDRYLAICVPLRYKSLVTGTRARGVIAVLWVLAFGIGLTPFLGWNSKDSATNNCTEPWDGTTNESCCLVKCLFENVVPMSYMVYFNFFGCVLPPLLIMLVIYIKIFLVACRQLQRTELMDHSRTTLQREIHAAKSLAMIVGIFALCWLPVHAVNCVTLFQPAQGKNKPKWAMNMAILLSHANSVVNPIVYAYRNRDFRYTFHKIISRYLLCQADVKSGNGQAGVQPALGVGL
Description: The effects of the tested compounds may be evaluated in functional assays measuring the stimulatory capability of the ligands to increase cAMP levels in hA2B receptors expressed in CHO cells. This may done as described by Pastorin et al. in “Pyrazolo[4,3-e]-1,2,4-triazolo[1,5-c]pyrimidine derivatives as adenosine receptor antagonists.
(§1) For cell preparation CHO cells transfected with human A2B or A3 receptors are washed with phosphate-buffered saline and diluted trypsin, and centrifuged for 10 min at 200 g. […] After the preincubation time at 37° C., the examined ligands (1 nM-10 μM) are added to the mixture and incubated for a further 5 min. The reaction is terminated by the addition of cold 6% trichloroacetic acid (TCA). The TCA suspension is centrifuged at 2000 g for 10 min at 4° C. and the supernatant is extracted four times with water saturated diethyl ether. […] Samples of cyclic AMP standard (0-10 pmoles) are added to each test tube containing the incubation buffer (trizma base 0.1 mM, aminophylline 8.0 mM, 2-mercaptoethanol 6.0 mM, pH 7.4) and [^3H]cyclic AMP in total volume of 0.5 mL. The binding protein previously incubated at 4° C. for 150 min, and after the addition of charcoal is centrifuged at 2000 g for 10 min. The clear supernatant is counted in a Beckman scintillation counter.

[3] = target: T3, human A3 receptors in CHO cells (Homo sapiens, UniProt P0DMS8); assay: cAMP assay hA3 CHO cells; type: cell-based; conditions: cyclic AMP assay, mean ± s.e. mean
T3 construct: expressed in transfected cells; host or cells: CHO cells
T3 sequence (P0DMS8 1-318): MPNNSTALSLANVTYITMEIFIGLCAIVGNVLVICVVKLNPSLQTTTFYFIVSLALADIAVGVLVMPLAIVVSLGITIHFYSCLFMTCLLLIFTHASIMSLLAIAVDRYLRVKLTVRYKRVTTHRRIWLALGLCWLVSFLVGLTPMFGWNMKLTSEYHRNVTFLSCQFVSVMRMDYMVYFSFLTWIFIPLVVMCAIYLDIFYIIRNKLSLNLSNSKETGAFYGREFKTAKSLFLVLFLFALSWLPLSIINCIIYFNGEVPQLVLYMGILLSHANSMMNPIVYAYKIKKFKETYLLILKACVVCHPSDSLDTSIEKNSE
Description: as §1

[4] = target: T4, hA1 receptors expressed in CHO cells (Homo sapiens, UniProt P30542); assay: [3H]CHA binding hA1 CHO cells
T4 sequence (P30542 1-326): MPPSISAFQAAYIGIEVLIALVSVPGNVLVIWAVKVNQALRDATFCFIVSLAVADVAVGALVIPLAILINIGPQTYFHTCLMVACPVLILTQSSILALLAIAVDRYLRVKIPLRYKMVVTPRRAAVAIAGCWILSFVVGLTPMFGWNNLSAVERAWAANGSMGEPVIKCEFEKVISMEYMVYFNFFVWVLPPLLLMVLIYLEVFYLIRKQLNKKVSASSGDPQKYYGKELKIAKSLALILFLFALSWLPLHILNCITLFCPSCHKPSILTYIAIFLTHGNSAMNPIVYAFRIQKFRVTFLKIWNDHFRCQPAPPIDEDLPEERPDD
Description: as §2, §3, §4

[5] = read-out: [3H]CHA binding hA1 CHO cells Ki, 1 nM [3H]-CHA, hA1 CHO cell membranes, 150 min at 25° C., mean ± s.e. mean

T1 sequence (P29274 whole entry): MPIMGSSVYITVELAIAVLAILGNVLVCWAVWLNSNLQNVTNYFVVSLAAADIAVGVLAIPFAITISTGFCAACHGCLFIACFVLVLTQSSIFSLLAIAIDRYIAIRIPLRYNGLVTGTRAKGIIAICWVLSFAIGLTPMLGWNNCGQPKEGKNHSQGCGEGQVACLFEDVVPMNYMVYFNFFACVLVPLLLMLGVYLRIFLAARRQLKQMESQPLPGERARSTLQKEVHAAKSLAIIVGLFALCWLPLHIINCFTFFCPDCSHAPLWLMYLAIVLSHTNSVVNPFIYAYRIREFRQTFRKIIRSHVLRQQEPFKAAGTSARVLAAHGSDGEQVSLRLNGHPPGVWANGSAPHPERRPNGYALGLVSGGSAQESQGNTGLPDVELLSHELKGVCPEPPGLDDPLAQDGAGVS

Structure (SMILES)	Ki [1] [nM]	Selectivity hA1/hA2B [2]	Selectivity hA2A/hA2B [2]	Selectivity hA3/hA2B [2]	EC50 [2] [nM]	melting point [°C]	IC50 [3] [nM]	Ki [4, 5] [nM]	Ki [4] [nM]
CCNC(=O)[C@H]1O[C@@H](n2cnc3c(NNC(=O)c4cccnc4)ncnc32)[C@H](O)[C@@H]1O [Compound 11b, (2S, 3S, 4R, 5R)-3,4-Dihydroxy-5-{6-[N′-(pyridine-3-carbonyl)-hydrazino]-9H-purin-9-yl}-tetrahydrofuran-2-carboxylic acid ethylamide]	> 1000				> 1000	170	> 1000		> 1000
CCNC(=O)[C@H]1O[C@@H](n2cnc3c(NNC(=O)c4ccco4)ncnc32)[C@H](O)[C@@H]1O [Compound 12b, (2S, 3S, 4R, 5R)-5-{6-[N′-(Furan-2-carbonyl)-hydrazino]-9H-purin-9-yl}-3,4-dihydroxy-tetrahydrofuran-2-carboxylic acid ethylamide]	> 1000	>12.19	>12.19	>12.19	82 ± 10	233 to 234	> 1000		> 1000

The next lines start with the values.

Ki [1] [nM]	Selectivity hA1/hA2B [2]	Selectivity hA2A/hA2B [2]	Selectivity hA3/hA2B [2]	EC50 [2] [nM]	melting point [°C]	IC50 [3] [nM]	Ki [4, 5] [nM]	Ki [4] [nM]	Structure (SMILES)
633 ± 60	0.10	1.05	0.11	603 ± 31	153 to 154	67 ± 4	62 ± 4		CCNC(=O)[C@H]1O[C@@H](n2cnc3c(NNC(=O)Cc4cccs4)nc(Cl)nc32)[C@H](O)[C@@H]1O [Compound 20b, (2S, 3S, 4R, 5R)-5-{2-Chloro-6-[N′-(2-thiophene-2-yl-acetyl)-hydrazino]-9H-purin-9-yl}-3,4-dihydroxy-tetrahydrofuran-2-carboxylic acid ethylamide]
> 1000	3.68	>5.00	>5.00	200 ± 20	189 to 190	> 1000	737 ± 76		CCNC(=O)[C@H]1O[C@@H](n2cnc3c(NNC(=O)c4cccs4)nc(Cl)nc32)[C@H](O)[C@@H]1O [Compound 22b, (2S, 3S, 4R, 5R)-5-{2-Chloro-6-[N′-(thiophene-2-carbonyl)-hydrazino]-9H-purin-9-yl}3,4-dihydroxy-tetrahydrofuran-2-carboxylic acid ethylamide]
> 1000	1.70	>2.78	>2.78	359 ± 36	230 to 231	> 1000	610 ± 32		CCNC(=O)[C@H]1O[C@@H](n2cnc3c(NNC(=O)c4ccc[nH]4)nc(Cl)nc32)[C@H](O)[C@@H]1O [Compound 24b, (2S, 3S, 4R, 5R)-5-{2-Chloro-6-[N′-(1H-pyrrole-2-carbonyl)-hydrazino]-9H-purin-9-yl}-3,4-dihydroxy-tetrahydrofuran-2-carboxylic acid ethylamide]

Source: patent US7691825B2, “Adenosine A2B receptor agonists” (King Pharmaceuticals Research and Development, Inc., priority 2006, dated 2010)
